Measurements reported in patent US8163929B2, “Dihydropyridone amides as P2X7 modulators” (Roche Palo Alto LLC, priority 2008, dated 2012).

Target: T1, P2X7 (UniProt Q99572)
T1 sequence (Q99572 1-595): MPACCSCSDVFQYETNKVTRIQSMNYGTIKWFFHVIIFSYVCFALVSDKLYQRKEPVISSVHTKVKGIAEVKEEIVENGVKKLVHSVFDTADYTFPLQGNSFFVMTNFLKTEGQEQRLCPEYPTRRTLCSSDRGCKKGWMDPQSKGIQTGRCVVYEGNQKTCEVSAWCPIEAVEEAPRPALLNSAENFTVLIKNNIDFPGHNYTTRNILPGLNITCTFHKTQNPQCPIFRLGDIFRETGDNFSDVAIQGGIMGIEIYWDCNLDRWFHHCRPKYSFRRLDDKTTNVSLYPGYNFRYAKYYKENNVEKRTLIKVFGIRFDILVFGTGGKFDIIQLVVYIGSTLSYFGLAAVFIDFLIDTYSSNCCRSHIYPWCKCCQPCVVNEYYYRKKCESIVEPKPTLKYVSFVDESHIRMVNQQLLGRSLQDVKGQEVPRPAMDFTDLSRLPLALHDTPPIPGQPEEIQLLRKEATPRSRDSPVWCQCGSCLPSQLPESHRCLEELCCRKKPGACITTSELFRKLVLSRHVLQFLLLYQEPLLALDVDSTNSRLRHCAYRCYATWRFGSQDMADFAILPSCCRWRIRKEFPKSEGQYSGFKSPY
Test: P2X7 activity of Table 1
Type: cell-based
Details: pIC50 values for P2X7
Protocol: Stock solutions of compounds were prepared from powders as a 10 mM DMSO stock solution. These solutions were stored at RT during the two week period of these experiments to prevent freeze-thaw of the DMSO stocks. The DMSO stocks were added to the appropriate assay buffer at a concentration of 10 μM, and then diluted serially to the final concentrations that were tested. […] The aqueous solutions of compounds as well as ATP (Sigma A7699) and BzATP (Sigma B6396) were prepared fresh for each day of experiment.
1321N1 cells stably expressing the full length human P2X7 gene (1321N1-hP2X7) and HEK293 cells stably expressing the full length rat P2X7 gene (HEK293-rP2X7) were obtained from the Roche Cell Culture Facility. 1321N1-hP2X7 cells were grown in Dulbecco's Modified Eagle's Medium (DMEM) high glucose supplemented with 10% FBS and 250 μg/mL G418. HEK293-rP2X7 cells were grown in DMEM/F-12 supplemented with 10% FBS, 1 mM CaCl2, 2 mM MgCl2, 2 mM L-Glutamine and 500 μg/ml G418. Cells were split such that they never became >70% confluent.
On the day prior to the experiment, 1321N1-hP2X7 or HEK293-rP2X7 cells were released into suspension with calcium-free PBS+Versene and washed by centrifugation with calcium-free PBS to remove the Versene. Cells were resuspended in growth medium at a density of 2.5×10^5 cells/mL and seeded into black walled, clear bottom 96 well plates (50,000 cells/well) approximately 18 hr prior to intracellular calcium flux experiments.
On the day of the experiment, plates were washed with FLIPR buffer (calcium- and magnesium-free Hank's Balanced Salt Solution (HBSS) supplemented with 10 mM Hepes, 2.5 mM probenecid and 2 mM calcium chloride) using a BIO-TEK 96 channel plate washer and incubated with […] fluo-3 dye at 37° C. for one hr. The dye was then removed by plate washing and the cells were allowed to equilibrate for 20 min at room temperature with antagonist or vehicle (FLIPR buffer). Agonist (100 μM BzATP final concentration for hP2X7; 5 μM BzATP final concentration or rP2X7) was added online with the FLIPR and fluorescence measurements made at 1 sec intervals for 60 sec followed by 3 sec intervals for a further 4 min (5 min total). A final addition of 5 μM ionomycin was made and the maximal BzATP-evoked fluorescence normalized to the maximal ionomycin-evoked fluorescence.

pIC50 | Compound
7.873 | Cc1ccc(N2CCCC2)cc1NC(=O)C1=CNC(=O)C[C@H]1c1ccc(F)cc1 [Compound 46, (S)-4-(4-Fluoro-phenyl)-6-oxo-1,4,5,6-tetrahydro-pyridine-3-carboxylic acid (2-methyl-5-pyrrolidin-1-yl-phenyl)-amide]
7.01 | Cc1ccc(-n2ncc(=O)n(C)c2=O)cc1NC(=O)C1=CN(C)C(=O)C[C@H]1c1ccc(F)cc1 [Compound 68, (S)-4-(4-Fluoro-phenyl)-1-methyl-6-oxo-1,4,5,6-tetrahydro-pyridine-3-carboxylic acid [2-methyl-5-(4-methyl-3,5-dioxo-4,5-dihydro-3H-[1,2,4]triazin-2-yl)-phenyl]-amide]
7.53 | Cc1ccc(-c2ccn(CCO)n2)cc1NC(=O)C1=CNC(=O)C[C@H]1c1ccc(F)cc1 [Compound 84, (S)-4-(4-Fluoro-phenyl)-6-oxo-1,4,5,6-tetrahydro-pyridine-3-carboxylic acid {5-[1-(2-hydroxy-ethyl)-1H-pyrazol-3-yl]-2-methyl-phenyl}-amide]
6.615 | COC[C@@H](O)Cn1nc(-c2ccc(C)c(NC(=O)C3=CN(C)C(=O)C[C@H]3c3ccc(F)cc3)c2)cc1C [Compound 92, (S)-4-(4-Fluoro-phenyl)-1-methyl-6-oxo-1,4,5,6-tetrahydro-pyridine-3-carboxylic acid {5-[1-((S)-2-hydroxy-3-methoxy-propyl)-5-methyl-1H-pyrazol-3-yl]-2-methyl-phenyl}-amide]
7.033 | Cc1ccc(-c2ccnn2C)cc1NC(=O)C1=CNC(=O)C[C@H]1c1ccc(F)cc1 [Compound 13, (S)-4-(4-Fluoro-phenyl)-6-oxo-1,4,5,6-tetrahydro-pyridine-3-carboxylic acid [2-methyl-5-(2-methyl-2H-pyrazol-3-yl)-phenyl]-amide]
8.045 | Cc1ccc(-c2ccnn(C)c2=O)cc1NC(=O)C1=CNC(=O)C[C@H]1c1cccc(F)c1 [Compound 109, (S)-4-(3-Fluoro-phenyl)-6-oxo-1,4,5,6-tetrahydro-pyridine-3-carboxylic acid [2-methyl-5-(2-methyl-3-oxo-2,3-dihydro-pyridazin-4-yl)-phenyl]-amide]
7.183 | Cc1cc(-c2ccc(C)c(NC(=O)C3=CNC(=O)C[C@H]3c3ccc(F)cc3)c2)no1 [Compound 40, (S)-4-(4-Fluoro-phenyl)-6-oxo-1,4,5,6-tetrahydro-pyridine-3-carboxylic acid [2-methyl-5-(5-methyl-isoxazol-3-yl)-phenyl]-amide]
6.39 | Cc1cc(-c2ccc(F)c(NC(=O)C3=CN(C)C(=O)C[C@H]3c3ccc(F)cc3)c2)n[nH]1 [Compound 137, (S)-4-(4-Fluoro-phenyl)-1-methyl-6-oxo-1,4,5,6-tetrahydro-pyridine-3-carboxylic acid [2-fluoro-5-(5-methyl-1H-pyrazin-3-yl)-phenyl]-amide]
7.79 | Cc1ccc(-c2[nH]nc(C)c2C)cc1NC(=O)C1=CNC(=O)C[C@H]1c1ccc(F)cc1 [Compound 15, (S)-4-(4-Fluoro-phenyl)-6-oxo-1,4,5,6-tetrahydro-pyridine-3-carboxylic acid [5-(4,5-dimethyl-2H-pyrazol-3-yl)-2-methyl-phenyl]-amide]
7.3 | COCCn1nc(-c2ccc(C)c(NC(=O)C3=CNC(=O)C[C@H]3c3ccc(F)cc3)c2)cc1C [Compound 42, (S)-4-(4-Fluoro-phenyl)-6-oxo-1,4,5,6-tetrahydro-pyridine-3-carboxylic acid {5-[1-(2-methoxy-ethyl)-5-methyl-1H-pyrazol-3-yl]-2-methyl-phenyl}-amide]
7.54 | Cc1ccc(-c2cnccn2)cc1NC(=O)C1=CNC(=O)C[C@H]1c1ccc(F)cc1 [Compound 43, (S)-4-(4-Fluoro-phenyl)-6-oxo-1,4,5,6-tetrahydro-pyridine-3-carboyxlic acid (2-methyl-5-pyrazin-2-yl-phenyl)-amide]
7.265 | Cc1cnn(-c2cc(NC(=O)C3=CN(C)C(=O)C[C@H]3c3ccc(F)cc3)c(C)cc2F)c(=O)c1 [Compound 145, (S)-4-(4-Fluoro-phenyl)-1-methyl-6-oxo-1,4,5,6-tetrahydro-pyridine-3-carboxylic acid [4-fluoro-2-methyl-5-(4-methyl-6-oxo-6H-pyridazin-1-yl)-phenyl]-amide]
7.515 | Cc1ccc(-c2ccc(=O)[nH]n2)cc1NC(=O)C1=CNC(=O)C[C@H]1c1ccc(F)cc1 [Compound 99, (S)-4-(4-Fluoro-phenyl)-6-oxo-1,4,5,6-tetrahydro-pyridine-3-carboxylic acid [2-methyl-5-(6-oxo-1,6-dihydro-pyridazin-3-yl)-phenyl]-amide]
7.72 | COC[C@H](O)Cn1nc(-c2ccc(C)c(NC(=O)C3=CNC(=O)C[C@H]3c3ccc(F)cc3)c2)cc1C [Compound 75, (S)-4-(4-Fluoro-phenyl)-6-oxo-1,4,5,6-tetrahydro-pyridine-3-carboxylic acid {5-[1-((R)-2-hydroxy-3-methoxy-propyl)-5-methyl-1H-pyrazol-3-yl]-2-methyl-phenyl}-amide]
7.325 | Cc1nccc(-c2ccc(C)c(NC(=O)C3=CNC(=O)C[C@H]3c3ccc(F)cc3)c2)n1 [Compound 53, (S)-4-(4-Fluoro-phenyl)-6-oxo-1,4,5,6-tetrahydro-pyridine-3-carboxylic acid [2-methyl-5-(2-methyl-pyrimidin-4-yl)-phenyl]-amide]
7.965 | Cc1ccc(-c2ccn(C)n2)cc1NC(=O)C1=CNC(=O)C[C@H]1c1cccc(F)c1 [Compound 63, (S)-4-(3-Fluoro-phenyl)-6-oxo-1,4,5,6-tetrahydro-pyridine-3-carboxylic acid [2-methyl-5-(1-methyl-1H-pyrazol-3-yl)-phenyl]-amide]
7.75 | Cc1cc(-c2ccc(C)c(NC(=O)C3=CNC(=O)C[C@H]3c3cccc(F)c3)c2)n[nH]1 [Compound 22, (S)-4-(3-Fluoro-phenyl)-6-oxo-1,4,5,6-tetrahydro-pyridine-3-carboxylic acid [2-methyl-5-(5-methyl-1H-pyrazol-3-yl)-phenyl]-amide]
7.18 | Cc1ccc(=O)n(-c2ccc(C)c(NC(=O)C3=CN(C)C(=O)C[C@H]3c3ccc(F)cc3)c2)c1 [Compound 140, (S)-4-(4-Fluoro-phenyl)-1-methyl-6-oxo-1,4,5,6-tetrahydro-pyridine-3-carboxylic acid [2-methyl-5-(5-methyl-2-oxo-2H-pyridin-1-yl)-phenyl]-amide]
7.385 | Cc1ccc(-c2ccc(=O)n(CCO)n2)cc1NC(=O)C1=CNC(=O)C[C@H]1c1ccc(F)cc1 [Compound 121, (S)-4-(4-Fluoro-phenyl)-6-oxo-1,4,5,6-tetrahydro-pyridine-3-carboxylic acid {5-[1-(2-hydroxy-ethyl)-6-oxo-1,6-dihydro-pyridazin-3-yl]-2-methyl-phenyl}-amide]
6.425 | Cc1ccc(-c2cncnc2)cc1NC(=O)C1=CNC(=O)C[C@H]1c1ccc(F)cc1 [Compound 52, (S)-4-(4-Fluoro-phenyl)-6-oxo-1,4,5,6-tetrahydro-pyridine-3-carboxylic acid (2-methyl-5-pyrimidin-5-yl-phenyl)-amide]
7.375 | Cc1ccc(-c2cc(C)n(CCO)n2)cc1NC(=O)C1=CNC(=O)CC1c1ccc(F)c(F)c1 (stereo not drawn) [Compound 85, 4-(3,4-Difluoro-phenyl)-6-oxo-1,4,5,6-tetrahydro-pyridine-3-carboxylic acid {5-[1-(2-hydroxy-ethyl)-5-methyl-1H-pyrazol-3-yl]-2-methyl-phenyl}-amide]
